Experimental data: paper PMC7180728, “Novel Anthraquinone Compounds Inhibit Colon Cancer Cell Proliferation via the Reactive Oxygen Species/JNK Pathway” (Molecules, 2020)

What was measured:
[1] = tested on: HCT116 cells; experiment: MTT cell viability with or without zVAD-FMK; assay type: cell-based, human; conditions: Homo sapiens, HCT-116, 8a 20 μg/mL alone, 24 h
From the text: Caspases represent a key molecular group in the regulation of apoptosis. In caspases, there is an upstream and downstream relationship between the initiator of apoptosis and executioner. Caspase 3 is one of the key executers of apoptosis, as it is either partially or totally responsible for the proteolytic cleavage of many key proteins. For example, when caspase 9 is activated, it activates caspase 3, which ultimately triggers cell apoptosis. After detecting the expression of the corresponding Bcl-2 family proteins after 8a treatment by western blotting, we went on to detect the expression levels of PARP, caspase 9, cleaved caspase 9, caspase 3, and cleaved caspase 3 proteins. […] After 24 h of treatment with zVAD-FMK, cell viability is 93%.
Figure 7 Effect of 8a on apoptosis-related protein expression. […] PARP, caspase 3, cleaved caspase 3, caspase 9, cleaved caspase 9, Bcl-2, phosphorylated Bcl-2, Bcl-XL, phosphorylated Bcl-xL and Bax were detected by western blot analysis; β-actin was used as a loading control in each lane. Representative data of three independent experiments are shown; (C) and (D) Grayscale analysis of the relative expression of apoptosis-related proteins detected by Western blotting. […] (E) Cells were exposed to 8a (20 μg/mL) and/or zVAD-FMK ([…]) for 24 h, and cell viability was measured by MTT assay. […]

[2] = tested on: mitochondrial membrane potential of HCT116 cells; experiment: Mitochondrial membrane potential, JC-1 flow cytometry; assay type: cell-based, human; conditions: 24 h
Description: Decreased mitochondrial membrane potential is a hallmark of early cell apoptosis, and a decrease in mitochondrial membrane potential leads to the release of certain mitochondrial proteins, such as cytochrome c, which mediate apoptosis. Therefore, we examined changes in mitochondrial membrane potential by flow cytometry. HCT116 cells were treated with 8a (10 or 20 μg/mL) for 24 h and then stained with 2 μg/mL JC-1 for 30 min prior to flow cytometric analysis. Green /orange fluorescence ratio of JC-1, compare with control, is 200% and 494.4%, respectively (Figure 8E,F). […] During apoptosis, mitochondrial cytochrome C is released into the cytoplasm and triggers the activation cascade of caspase. HCT116 cells were collected after 8a treatment, cytoplasmic protein and mitochondrial protein were extracted. The levels of cytochrome c in the cytoplasm and mitochondria were detected by Western blotting. After treatment of HCT116 cells with 8a (10 or 20 μg/mL) for 24 h, cytoplasmic levels of cytochrome c increased, while the levels in the mitochondria decreased.
The 1×10^4 cells were treated with different concentrations of 8a for 24 h. Cells were then incubated with 500 μL JC-1 ([…]) for 30 min at 37 °C in the dark. The level of mitochondrial membrane potential depolarization was measured by flow cytometry. Data were analyzed using the Cell Quest program (BD, New York, The United States).

[3] = tested on: intracellular ROS in HCT116 cells; experiment: Detection of ROS by DCFH-DA, flow cytometry; assay type: cell-based, human; conditions: compared to DMSO-treated control
Description: Intracellular ROS are key factors in the activation of many signaling pathways, involved in a variety of biological functions including apoptosis and necrosis. High levels of ROS are capable of inducing tumor cell apoptosis. We evaluated the ability of the compounds to induce ROS by flow cytometric analysis of the fluorescent probe DCFH-DA. […] Next, we investigated ROS production before and after induction with 8a and NAC (N-acetyl-L-cysteine).
Cells were added to a 6-well plate (1 × 10^4/well) and incubated for 24 h to allow adherence. Set 0.1% DMSO as the control group, 8a as the treatment group, NAC as the treatment group, 8a + NAC as the treatment group. Among them, in the 8a + NAC treatment group, 8a was added after 5 mM NAC treatment for 1 h. Cells that had been treated for 24 h were collected. The cells were then washed three times with PBS and incubated with 10 μM DCFH-DA for 30 min in the dark. ROS levels were analyzed by flow cytometry.

[4] = tested on: HL-7702; experiment: MTT cell proliferation assay, normal liver cells HL-7702; assay type: cell-based; conditions: L02, HL-7702 normal human hepatocyte, 48 h
Description: The effects of the synthesized amide anthraquinone derivatives on the proliferative activity of eight human cancerous cell lines (EC9706, MCF-7, SGC-7901, HepG2, QBC939, HeLa, HCT116 and SW480) in addition to two normal human cell lines (colorectal FHC and liver HL7702) were evaluated using the standard MTT assay.
The human esophageal cancer cell line EC9706 was obtained from Cancer Hospital and Institute by Prof. Ming Rong Wang, Chinese Academy Medical of Sciences. The human colorectal carcinoma cell lines HCT116 and SW480, hepatoma cell line HepG2, cervical carcinoma cell line HeLa, breast cancer cell line MCF-7, gastric cancer cell line SGC-7901, cholangiocarcinoma cell line QBC939, normal fetal colon cell line FHC and liver cell line HL-7702 were obtained from the Cell Bank of the Shanghai Chinese Academy of Sciences. All cells were cultured in RPMI 1640 medium containing 100 U/mL penicillin and streptomycin and 10% fetal bovine serum and maintained at 37°C under a 5% CO2 atmosphere.
We analyzed the inhibitory effects of eight anthraquinone-amino acid derivatives on the proliferation of eight tumor cell lines and two normal cell lines in vitro using MTT assays. Cells were added to a 96-well plate with (5,000 cells per well in 100 µL RPMI-1640 medium). Cells were treated with different concentrations (10–100 μg/mL) of 8a–8h for 48 h and then incubated with 20 μL MTT (5 mg/mL) for another 4 h at 37°C. DMSO (150 μL) was then added to each well to dissolve the formazan crystals. The absorbance of each well was read at 490 nm on a microtiter plate ELISA reader. The mean values were obtained from a minimum of three parallel experiments. IC50 values were calculated.

## CC(C)CC(NC(=O)c1ccc2c(c1[N+](=O)[O-])C(=O)c1ccccc1C2=O)C(=O)O (stereo not drawn) [Compound 8a, N-[(9,10-dihydro-1-nitro-9,10-dioxo-2-anthracenyl)carbonyl-leucine]]
[1]
  viability at 20 µg/mL: 38%
[2]; 10 μg/mL
  Green/orange fluorescence ratio of JC-1, compared with control: 200%
[2]; 20 μg/mL
  Green/orange fluorescence ratio of JC-1, compared with control: 494.4%
[2]; 10 or 20 μg/mL
  mitochondrial membrane potential (in words): decreased the mitochondrial membrane potential in a dose-dependent manner
[3]
  ROS levels (in words): increase ROS levels in a dose-dependent manner
[4]
  IC50: > 1000 µg/mL
